Laboratory results as given in patent US7618988B2, “Use of substituted aminomethyl chromans” (Merck Patentgesellschaft, priority 2001, dated 2009).

Assays:
cataleptic rat = experiment: reversal of catalepsy in rats; format: in vivo; conditions: subcutaneous; for ED50: Rattus norvegicus, sc, read-out: ED50 (calculated dose to reverse catalepsy by 50%)
Method: R represents hydrogen or a hydroxyl protecting group, and their optical isomers and pharmaceutically acceptable salts, in particular 2-({[5-(4-fluorophenyl)-pyridin-3ylmethyl]-amino}-methyl)-chroman-4-ol or an optical isomer or a physiologically acceptable salt or solvate thereof, excert an extraordinary potency in reversing catalepsy. Extrapyramidal motor side effects in e.g. rodents are measured by the ability of a drug to induce catalepsy. Catalepsy is defined as a state where an animal continues to remain in an unnormal (nonphysiological ‘uncomfortable’) posture for a long time (e.g.: M. E. Stanley and S. D. Glick, Neuropharmacology, 1996; 15: 393-394; C. J. E. Niemegeers and P. Janssen, Life Sci., 1979, […]). For example, if a hindpaw of a rat is placed on an elevated level, e.g. a platform elevated 3 cm above ground level, a normal rat immediately withdraws the hindpaw from the platform to the ground level. A cataleptic rat remains in this unnatural posture even for minutes.

Parkinson patients = conditions: literature; cited from earlier work
[1] = test system: patients with advanced idiopathic Parkinson's disease; experiment: double-blind study, advanced idiopathic Parkinson's disease with peak-dose dyskinesia; format: in vivo, human; conditions: add on, 2.5 to 10 mg b.i.d., diary card
Excerpt: A typical study to investigate the efficacy of the compounds according to the invention for adverse effects in Parkinson's disease is described in the following. 40 patients of either sex with advanced idiopathic Parkinson's disease complicated by “peak-dose” dyskinesia participate in a double-blind study. The main inclusion criteria are Hoehn & Yahr stage ≧2.5 (lit.: Hoehn H. M. et al, Neurology 1967; 17: 427-442), aged 40-75 years, symptom duration of at least 5 years, and a l-dopa treatment duration of at least 3 years. (2R,4R)-2-({[5-(4-fluorophenyl)-pyridin-3ylmethyl]-amino}-methyl)-chroman-4-ol monohydrochloride hemihydrate or placebo is administered as “add on” to the conventional Parkinson treatment, which is maintained unchanged during the whole study. The dose of blinded medication is titrated over a period of 3 weeks in a range from 2.5 to 10 mg b.i.d. Then the medication is kept constant for 3 weeks. Before the start of titration and at the end of the treatment period the patients fill a diary card in 30 min. inervals for 48 hours. The diary card differentiates 5 different states: (1) “on” without dyskinesia, (2) “on” with troublesome dyskinesia, (3) “on” with non-troublesome dyskinesia, (4) “off” time, and (5) time asleep (Hauser R A et al., Clin. Neuropharmacol., 2000, 23, 75-81). The primary outcome variable of the protocol is the change in “on” time with troublesome dyskinesia. […] The other parameters are not changed.

[2] = test system: patients with idiopathic Parkinson's disease; experiment: double-blind study, idiopathic Parkinson's disease; format: in vivo, human; conditions: add on, 2.5 to 10 mg b.i.d.
Excerpt: A typical study to investigate the efficacy of the compounds according to the invention in the treatment of idiopathic Parkinson's disease is described in the following. 180 patients of either sex with idiopathic Parkinson's disease participate in a double-blind study. The main inclusion criteria are Hoehn & Yahr stage ≧2.0 (Hoehn H. M. et al, Neurology 1967; 17: 427442), aged 50-80 years, symptom duration of at least 5 years. (2R,4R)-2-({[5-(4-fluorophenyl)-pyridin-3ylmethyl]-amino}-methyl)-chroman-4-ol monohydrochloride hemihydrate or placebo is administered as “add on” to the conventional Parkinson treatment, which is maintained unchanged during the whole study. The dose of blinded medication is titrated over a period of 4 weeks in a range from 2.5 to 10 mg b.i.d. Then the medication is kept constant for 1 week. Before the start of titration and at the end of the treatment period the patients fill a diary card in 30 min. intervals for 48 hours. The diary card differentiates 5 different states: (1) “on” without dyskinesia, (2) “on” with troublesome dyskinesia, (3) “on” with non-troublesome dyskinesia, (4) “off” time, and (5) time asleep (Hauser R A et al., Clin. Neuropharmacol., 2000, 23, 75-81). […]

MSA patients = experiment: study in MSA patients (UPDRS); format: in vivo, human; conditions: add on, 2,5 to 20 mg b.i.d.
Method: The study design is similar to that described above for Parkinson's disease. (2R,4R)-2-({[5-(4-fluorophenyl)-pyridin-3ylmethyl]-amino}-methyl)-chroman-4-ol monohydrochloride hemihydrate or placebo is titrated as “add on” to the conventional treatment (dose range 2,5 to 20 mg b.i.d.). After a double-blind dose-finding phase of 3 weeks during which the individual dose is identified for each patient on the basis of tolerability and efficacy, the dose is maintained unchanged for 3 additional weeks. Before the start of titration and at the end of the treatment period a complete UPDRS assessment is performed in each patient (primary outcome measure).

[3] = test system: schizophrenic inpatients on long-term antipsychotic treatment; experiment: study in tardive dyskinesia (AIMS); format: in vivo, human; conditions: add on, 2,5 to 20 mg b.i.d., vs placebo period
Excerpt: Tardive dyskinesia is a common adverse effect of long-term treatment with neuroleptics. A typical study to investigate the efficacy of the compounds according to the invention in tardive dyskinesia is described in the following. 32 schizophrenic (DSM-III-R) inpatients aged 25-60 years on long-term stable antipsychotic treatment (duration of at least 5 years) entered the study. (2R,4R)-2-({[5-(4-fluorophenyl)-pyridin-3ylmethyl]-amino}-methyl)-chroman-4-ol monohydrochloride hemihydrate or placebo is administered as “add on” to the antipsychotic treatment, which is kept constant during the whole study. The dose of blinded medication is titrated over a period of 3 weeks in a range from 2,5 to 20 mg b.i.d. Then the medication is maintained under double-blind conditions for 2 weeks. After a 2-week wash-out period, the test drugs are crossed over. Assessments of tardive dyskinesia by means of the Abnormal Involuntary Movement Scale (AIMS, see above) and of Parkinsonian extrapyramidal side effects (UPDRS, see above) are made pretreatment and posttreatment.

dopamine D4 receptors = dopamine D4 receptors (Homo sapiens, UniProt P21917); conditions: literature statement; cited from earlier work
parkinsonian monkeys = conditions: literature; cited from earlier work

Sequence of dopamine D4 receptors (P21917 whole entry): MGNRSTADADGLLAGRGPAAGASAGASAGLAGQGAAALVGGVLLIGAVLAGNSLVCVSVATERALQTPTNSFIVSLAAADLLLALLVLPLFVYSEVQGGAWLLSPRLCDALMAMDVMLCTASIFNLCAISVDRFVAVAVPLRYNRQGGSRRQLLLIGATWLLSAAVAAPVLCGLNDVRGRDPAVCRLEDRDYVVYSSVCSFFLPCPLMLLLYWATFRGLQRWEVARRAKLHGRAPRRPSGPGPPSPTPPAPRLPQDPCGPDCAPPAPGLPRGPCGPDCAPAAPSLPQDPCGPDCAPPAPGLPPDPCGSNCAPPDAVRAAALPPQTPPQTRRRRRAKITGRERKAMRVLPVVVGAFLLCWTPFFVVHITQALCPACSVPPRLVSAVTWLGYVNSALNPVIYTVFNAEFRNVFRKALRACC

O=C1CC2(CCCC2)CC(=O)N1CCCCN1CCN(c2ncccn2)CC1 [buspirone]
ED50 (cataleptic rat): 6 mg/kg | anti-dyskinetic effect (Parkinson patients): moderate anti-dyskinetic properties

(2R,4R)-2-({[5-(4-fluorophenyl)-pyridin-3ylmethyl]-amino}-methyl)-chroman-4-ol monohydrochloride hemihydrate
other diary parameters [1]: not changed | “on” time with troublesome dyskinesia [1]: significant reduction | “on” time without dyskinesia [1]: significantly increase | clinical improvement [2]: significant clinical improvement | efficacy to treat tremor [2]: efficacy to treat tremor is shown | UPDRS, Parkinson symptoms (MSA patients): significant clinical improvement of Parkinson symptoms | AIMS scores [3]: significantly lower than during placebo period

Cc1ccc2c(c1)C(N1CCN(C)CC1)=Nc1cccnc1N2 [8-methyl-6-(4-methyl-1-piperazineyl)-11 H-pyrido[2,3-b][1,4,]benzodiazepine]
ED50 (calculated dose to reverse catalepsy by 50%) (cataleptic rat): 3 mg/kg | selectivity for the dopamine D4 receptor compared to clozapine (dopamine D4 receptors): much increased selectivity | effects in parkinsonian monkeys (parkinsonian monkeys): beneficial effects

O=C1c2ccccc2S(=O)(=O)N1CCCCN1CCN(c2ncccn2)CC1 [ipsapirone]
ED50 (cataleptic rat): 10 mg/kg
